{
  "source": "patent US8609666B2",
  "about": "“2-morpholino-pyrido[3,2-D]pyrimidines” (Merck Serono SA, priority 2009, dated 2013)",
  "key": {"[1]": {"tested_on": "Human recombinant GST-PI3K", "test": "PI3K induced-lipid phosphorylation scintillation proximity assay (neomycin-coated SPA beads)", "format": "biochemical", "settings": "amount necessary to achieve 50% inhibition of PI3K; 120 min at room temperature", "source_text": "The efficacy of compounds of the invention in inhibiting the PI3K induced-lipid phosphorylation may be tested in the following binding assay. The assay combines the scintillation proximity assay technology (SPA, Amersham) with the capacity of neomycin (a polycationic antibiotic) to bind phospholipids with high affinity and specificity. The Scintillation Proximity Assay is based on the properties of weakly emitting isotopes (such as ^3H, ^125I, ^33P). Coating SPA beads with neomycin allows the detection of phosphorylated lipid substrates after incubation with recombinant PI3K and radioactive ATP in the same well, by capturing the radioactive phospholipids to the SPA beads through their specific binding to neomycin. To a 96 wells MTP containing 10 μl of the test compound of Formula (I) (solubilized in 10% DMSO; to yield a concentration of 100, 25, 5.0, 1.25, 0.312, 0.078, 0.0195, 0.00488, 0.00122 and 0.0003 μM of the test compound), the following assay components are added: 1) 10 μL of lipid micelles 2) […] of Kinase buffer ([^33P]γATP162 μM/300 nCi, MgCl2 2.5 mM, DTT 2.5 mM, Na3VO4 25 μM in Hepes 40 mM, pH 7.4) and 3) 10 μL (100 ng) of Human recombinant GST-PI3K (in Hepes 40 mM, pH 7.4, ethylenglycol 4%). After incubation at room temperature for 120 minutes, with gentle agitation, the reaction is stopped by addition of 200 μL of a solution containing 250 μg of neomycin-coated PVT SPA beads, ATP 60 mM and EDTA 6.2 mM in PBS. The assay is further incubated at room temperature for 60 minutes with gentle agitation to allow binding of phospholipids to neomycin-SPA beads. After precipitation of the neomycin-coated PVT SPA beads for 5 minutes at 1500×g, radioactive PtdIns(3)P is quantified by scintillation counting in a Wallac MicroBeta™ plate counter. The values indicated in Table I below refer to the IC50 (μM) with respect to PI3K, i.e. the amount necessary to achieve 50% inhibition of said target. Said values show a considerable inhibitory potency of pyridopyrimidine compounds with regard to PI3K."}, "CK2 protein kinase": {"target": "CK2 protein kinase", "settings": "Fruman et al., 1998; cited from earlier work"}},
  "data": [
    {"smiles": "Cc1cc(O)ccc1-c1nc(N2CCOCC2)nc2c(N(C)CCO)cc(C(=O)O)nc12", "note": "[Example 58, 8-[(2-Hydroxyethyl)(methyl)amino]-4-(4-hydroxy-2-methylphenyl)-2-morpholin-4-ylpyrido[3,2-d]pyrimidine-6-carboxylic acid]", "values": [
      {"measurement": "IC50", "setting": "[1]", "result": 936, "unit": "nM"}
    ]},
    {"smiles": "CN(CCO)c1cc(C(=O)O)nc2c(-c3ccc(F)cc3O)nc(N3CCOCC3)nc12", "note": "[Example 59, 4-(4-Fluoro-2-hydroxyphenyl)-8-[(2-hydroxyethyl)(methyl)amino]-2-morpholin-4-ylpyrido[3,2-d]pyrimidine-6-carboxylic acid]", "values": [
      {"measurement": "IC50", "setting": "[1]", "result": 220, "unit": "nM"}
    ]},
    {"smiles": "CC(=O)N1CCN(c2cc(C(=O)O)nc3c(-c4cccc(O)c4)nc(N4CCOCC4)nc23)CC1", "note": "[Example 60, 8-(4-Acetylpiperazin-1-yl)-4-(3-hydroxyphenyl)-2-morpholin-4-ylpyrido[3,2-d]pyrimidine-6-carboxylic acid]", "values": [
      {"measurement": "IC50", "setting": "[1]", "result": 80, "unit": "nM"}
    ]},
    {"smiles": "CS(=O)(=O)N1CCN(c2cc(C(=O)O)nc3c(-c4cccc(O)c4)nc(N4CCOCC4)nc23)CC1", "note": "[Example 61, 4-(3-Hydroxyphenyl)-8-[4-(methylsulfonyl)piperazin-1-yl]-2-morpholin-4-ylpyrido[3,2-d]pyrimidine-6-carboxylic acid]", "values": [
      {"measurement": "IC50", "setting": "[1]", "result": 15, "unit": "nM"}
    ]},
    {"smiles": "Cc1cc(C(=O)O)nc2c(-c3cccc(O)c3)nc(N3CCOCC3)nc12", "note": "[Example 62, 4-(3-Hydroxyphenyl)-8-methyl-2-morpholin-4-ylpyrido[3,2-d]pyrimidine-6-carboxylic acid]", "values": [
      {"measurement": "IC50", "setting": "[1]", "result": 225, "unit": "nM"}
    ]},
    {"smiles": "O=C(O)c1cc(Cl)c2nc(N3CCOCC3)nc(-c3ccccc3)c2n1", "note": "[Example 64, 8-Chloro-2-morpholin-4-yl-4-phenylpyrido[3,2-d]pyrimidine-6-carboxylic acid]", "values": [
      {"measurement": "IC50", "setting": "[1]", "result": 678, "unit": "nM"}
    ]},
    {"smiles": "COCCN(C)c1cc(C(=O)O)nc2c(-c3cc(F)cc(F)c3)nc(N3CCOCC3)nc12", "note": "[Example 65, 4-(3,5-Difluorophenyl)-8-[(2-methoxyethyl)(methyl)amino]-2-morpholin-4-ylpyrido[3,2-d]pyrimidine-6-carboxylic acid]", "values": [
      {"measurement": "IC50", "setting": "[1]", "result": 1290, "unit": "nM"}
    ]},
    {"smiles": "CN(C)c1cc(C(=O)O)nc2c(-c3cccc(C#N)c3)nc(N3CCOCC3)nc12", "note": "[Example 66, 4-(3-Cyanophenyl)-8-(dimethylamino)-2-morpholin-4-ylpyrido[3,2-d]pyrimidine-6-carboxylic acid]", "values": [
      {"measurement": "IC50", "setting": "[1]", "result": 1100, "unit": "nM"}
    ]},
    {"smiles": "CS(=O)(=O)N1CCN(c2cc(C(=O)O)nc3c(-c4ccccc4)nc(N4CCOCC4)nc23)CC1", "note": "[Example 67, 8-[4-(Methylsulfonyl)piperazin-1-yl]-2-morpholin-4-yl-4-phenylpyrido[3,2-d]pyrimidine-6-carboxylic acid]", "values": [
      {"measurement": "IC50", "setting": "[1]", "result": 30, "unit": "nM"}
    ]},
    {"smiles": "O=c1cc(N2CCOCC2)oc2c(-c3ccccc3)cccc12", "note": "[LY294002]", "values": [
      {"measurement": "IC50", "setting": "CK2 protein kinase", "result": "5000 to 10000", "unit": "nM"}
    ]}
  ]
}
